Like-named read-outs stand apart in the source and are kept apart here.
Experiments:
NAMPT = NAMPT (Homo sapiens (Human), UniProt P43490); test: Biochemical Inhibition Assay (NAMPT enzymatic reaction, NMN quantified by mass spectrometry); conditions: 33 nM recombinant His-tagged NAMPT, 1 μM NAM, 30 min at rt
Description: Assay 1: Biochemical Inhibition Assay
NAMPT protein purification. Recombinant His-tagged NAMPT was produced in E. coli cells, purified over a Ni column, and further purified over a size-exclusion column by XTAL Biostructures.
The NAMPT Enzymatic Reaction. The NAMPT enzymatic reactions were carried out in Buffer A (50 mM Hepes pH 7.5, 50 mM NaCl, 5 mM MgCl2, and 1 mM THP) in 96-well V-bottom plates. The compound titrations were performed in a separate dilution plate by serially diluting the compounds in DMSO to make a 100× stock. […] The compound and enzyme mixture was incubated for 15 min at rt, then 10 μL of 10× substrate and co-factors in Buffer A were added to the test well to make a final concentration of 1 μM NAM, […] 5-Phospho-D-ribose 1-diphosphate (PRPP), and 2.5 mM Adenosine 5′-triphosphate (ATP). The reaction was allowed to proceed for 30 min at rt, then was quenched with the addition of 11 μL of a solution of formic acid and L-Cystathionine to make a final concentration of 1% formic acid and 10 μM L-Cystathionine. Background and signal strength was determined by addition (or non-addition) of a serial dilution of NMN to a pre-quenched enzyme and cofactor mix.
Quantification of NMN. A mass spectrometry-based assay was used to measure the NAMPT reaction product, β-nicotinamide mononucleotide (NMN), and the internal control (L-Cystathionine). NMN and L-Cystathionine were detected using the services of Biocius Lifesciences with the RapidFire system. In short, the NMN and L-Cystathionine were bound to a graphitic carbon cartridge in 0.1% formic acid, eluted in 30% acetonitrile buffer, and injected into a Sciex 4000 mass spectrometer. The components of the sample were ionized with electrospray ionization and the positive ions were detected. […] The fragments are quantified and the analyzed by the following method.
Determination of IC50 Values. First, the NMN signal was normalized to the L-Cystathionine signal by dividing the NMN signal by the L-Cystathionine signal for each well. The signal from the background wells were averaged and subtracted from the test plates.

A2780 cells = test: In-Vitro Cell Proliferation Assay (SRB)
[1] = Homo sapiens, A2780, 72 h, read-out: Cell Proliferation (IC50)
[2] = Homo sapiens, A2780, 72 h, read-out: Cell Proliferation (IC50), A2780 cells, 72 h, sulforhodamine B

Sequence of NAMPT (P43490 whole entry): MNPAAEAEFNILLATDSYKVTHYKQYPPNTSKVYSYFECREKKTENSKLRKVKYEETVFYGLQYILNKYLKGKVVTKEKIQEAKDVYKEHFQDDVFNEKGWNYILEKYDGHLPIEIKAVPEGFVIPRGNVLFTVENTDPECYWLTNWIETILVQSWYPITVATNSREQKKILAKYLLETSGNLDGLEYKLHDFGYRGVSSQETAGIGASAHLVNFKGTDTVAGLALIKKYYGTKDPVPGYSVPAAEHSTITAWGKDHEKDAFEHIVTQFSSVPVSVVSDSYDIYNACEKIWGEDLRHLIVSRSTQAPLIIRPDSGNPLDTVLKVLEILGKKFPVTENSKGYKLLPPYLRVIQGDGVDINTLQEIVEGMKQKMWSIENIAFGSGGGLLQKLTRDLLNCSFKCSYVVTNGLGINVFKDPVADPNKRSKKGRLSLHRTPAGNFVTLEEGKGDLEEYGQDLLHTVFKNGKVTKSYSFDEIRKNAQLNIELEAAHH

IC50 (NAMPT) | IC50 (A2780 cells; [1]) | IC50 (A2780 cells; [2]) | IC50 (A2780 cells; read-out: Cell Proliferation (IC50), A2780 cells, 72 h, sulforhodamine B) | SMILES
25.1 nM | 40.5 nM |  |  | O=C(NCc1ncc(S(=O)(=O)c2cc(F)cc(F)c2)cn1)c1cc2ccncc2o1 [Example 182, N-[[5-(3,5-difluorophenyl)sulfonyl-pyrimidin-2-yl]methyl]furo[2,3-c]pyridine-2-carboxamide]
224 nM | 91 nM |  |  | O=C(NCc1ccc(S(=O)(=O)C2CCN(CC(F)(F)F)CC2)cn1)c1cc2cnccc2[nH]1 [Example 166, N-[[5-[[1-(2,2,2-trifluoroethyl)-4-piperidyl]sulfonyl)-2-pyridyl]methyl]-1H-pyrrolo[3,2-c]pyridine-2-carboxamide]
39.8 nM | 50.7 nM |  |  | CCCC(=O)N1CCC(S(=O)(=O)c2ccc(CNC(=O)c3cc4ccncc4o3)nc2)CC1 [Example 130, N-[[5-[(1-butanoyl-4-piperidyl)sulfonyl]-2-pyridyl]methyl]furo[2,3-c]pyridine-2-carboxamide]
619 nM |  | 1860 nM |  | O=C(NCc1ccc(S(=O)(=O)N2CCC(N3CCCC3)CC2)cn1)c1cnc2[nH]ncc2c1 [Example 149, N-[[5-[(4-pyrrolidin-1-yl-1-piperidyl)sulfonyl]-2-pyridyl]methyl]-1H-pyrazolo[3,4-b]pyridine-5-carboxamide]
56.8 nM | 81.6 nM |  |  | CS(=O)(=O)c1cccc(S(=O)(=O)c2ccc(CNC(=O)c3ccc4nccn4c3)nc2)c1 [Example 137, N-[[5-(3-methylsulfonylphenyl)sulfonyl-2-pyridyl]methyl]imidazo[1,2-a]pyridine-6-carboxamide]
 |  | 38.9 nM |  | O=C(NCc1ccc(S(=O)(=O)C2CCN(C3COC3)CC2)cn1)c1cc2ccncc2o1 [Example 103, Furo[2,3-c]pyridine-2-carboxylic acid [5-(1-oxetan-3-yl-piperidine-4-sulfonyl)-pyridin-2-ylmethyl]-amide]
 |  | 58.8 nM |  | CCn1cc(S(=O)(=O)c2ccc(CNC(=O)c3cc4ccncc4o3)nc2)cn1 [Example 176, N-[[5-(l-ethylpyrazol-4-yl)sulfonyl-2-pyridyl]methyl]furo[2,3-c]pyridine-2-carboxamide]
 |  |  | 0.488 nM | CN1CCN(c2ccc(S(=O)(=O)c3ccc(CNC(=O)c4cc5ccncc5o4)nc3)cn2)CC1 [Example 113, N-[[5-[[6-(4-methylpiperazin-1-yl)-1-pyridyl]sulfonyl]-2-pyridyl]methyl]furo[2,3-c]pyridine-2-carboxamide]
 |  | 3.03 nM |  | CCN(C)c1ncc(S(=O)(=O)c2ccc(CNC(=O)c3cc4ccncc4o3)nc2)s1 [Example 146, N-[[5-[2-[ethyl(methyl)amino]thiazol-5-yl]sulfonyl-2-pyridyl]methyl]furo[2,3-c]pyridine-2-carboxamide]
 |  | 4.23 nM |  | O=C(NCc1ccc(S(=O)(=O)c2ccc(N3CCOCC3)cc2)cn1)N1Cc2ccncc2C1 [Example 97, 1,3-Dihydro-pyrrolo[3,4-c]pyridine-2-carboxylic acid [5-(4-morpholin-4-yl-benzenesulfonyl)-pyridin-2-ylmethyl]-amide]
 |  | 28.6 nM |  | O=C(NCc1ccc(S(=O)(=O)C2CCN(C3CCOCC3)CC2)cn1)c1cc2ccncc2o1 [Example 105, Furo[2,3-c]pyridine-2-carboxylic acid {5-[1-(tetrahydro-pyran-4-yl)-piperidine-4-sulfonyl]-pyridin-2-ylmethyl)-amide]
 |  | 41.5 nM |  | COc1cc(F)cc(S(=O)(=O)c2ccc(CNC(=O)c3cnc4[nH]ncc4c3)nc2)c1 [Example 144, N-[[5-(3-fluoro-5-methoxy-phenyl)sulfonyl-2-pyridyl]methyl]-1H-pyrazolo[3,4-b]pyridine-5-carboxamide]
 |  | 37.2 nM |  | CCCn1cc(S(=O)(=O)c2ccc(CNC(=O)N3Cc4ccncc4C3)nc2)cn1 [Example 140, N-[[5-(1-propylpyrazol-4-yl)sulfonyl-2-pyridyl]methyl]-1,3-dihydropyrrolo[3,4-c]pyridine-2-carboxamide]

Further lines, the compound ahead of its results:

SMILES | IC50 (NAMPT) | IC50 (A2780 cells; [1]) | IC50 (A2780 cells; [2]) | IC50 (A2780 cells; read-out: Cell Proliferation (IC50), A2780 cells, 72 h, sulforhodamine B)
CN(C)c1ncc(S(=O)(=O)c2ccc(CNC(=O)c3cc4ccncc4s3)nc2)s1 [Example 75, Thieno[2,3-c]pyridine-2-carboxylic acid [5-(2-dimethylamino-thiazole-5-sulfonyl)-pyridin-2-ylmethyl]-amide] | 2.2 nM | 0.8 nM |  | 
O=C(NCc1ccc(S(=O)(=O)c2cccc(OC(F)(F)F)c2)cn1)c1ccc2nccn2c1 [Example 13, Imidazo[1,2-a]pyridine-6-carboxylic acid [5-(3-trifluoromethoxy-benzenesulfonyl)-pyridin-2-ylmethyl]-amide] | 8.5 nM | 13.6 nM |  | 
O=C(NCc1ncc(S(=O)(=O)c2cccc(C(F)(F)F)c2)cn1)c1ccc2nccn2c1 [Example 77, Imidazo[1,2-a]pyridine-6-carboxylic acid [5-(3-trifluoromethyl-benzenesulfonyl)-pyrimidin-2-ylmethyl]-amide] | 17.6 nM | 16.5 nM |  | 
O=C(NCc1ncc(S(=O)(=O)c2ccccc2)cn1)c1cc2ccncc2o1 [Example 11, Furo[2,3-c]pyridine-2-carboxylic acid (5-benzenesulfonyl-pyrimidin-2-ylmethyl)-amide] |  | 314 nM |  | 
Nc1ncc2c(n1)CN(C(=O)NCc1ccc(S(=O)(=O)c3cc(F)cc(F)c3)cn1)C2 [Example 86, 2-Amino-5,7-dihydro-pyrrolo[3,4-d]pyrimidine-6-carboxylic acid [5-(3,5-difluoro-benzenesulfonyl)-pyridin-2-ylmethyl]-amide] | 354 nM |  | 2000 nM | 
O=C(NCc1ccc(S(=O)(=O)c2cccc(C(F)(F)F)c2)cn1)c1ccc2nccn2c1 [Example 10, Imidazo[1,2-a]pyridine-6-carboxylic acid [5-(3-trifluoromethyl-benzenesulfonyl)-pyridin-2-ylmethyl]-amide] | 12.7 nM |  | 8.3 nM | 
O=C(NCc1ccc([S+]([O-])c2cccc(C(F)(F)F)c2)cn1)c1cc2ccncc2o1 (racemic) [Example 87, Furo[2,3-c]pyridine-2-carboxylic acid [5-(3-trifluoromethyl-benzenesulfinyl)-pyridin-2-ylmethyl]-amide (racemic)] | 17.7 nM | 15.2 nM |  | 
O=C(NCc1ccc(S(=O)(=O)c2cccc(C(F)(F)F)c2)cn1)c1cc2cnccc2[nH]1 [Example 17, 1H-Pyrrolo[3,2-c]pyridine-2-carboxylic acid [5-(3-trifluoromethyl-benzenesulfonyl)-pyridin-2-ylmethyl]-amide] | 19.1 nM | 9.1 nM |  | 
O=C(NCc1ccc(S(=O)(=O)c2cccc(OC(F)(F)F)c2)cn1)c1cnc2[nH]ncc2c1 [Example 19, 1H-Pyrazolo[3,4-b]pyridine-5-carboxylic acid [5-(3-trifluoromethoxy-benzenesulfonyl)-pyridin-2-ylmethyl]-amide] |  |  | 28.3 nM | 
CC(C)n1cc(S(=O)(=O)c2ccc(CNC(=O)c3cc4ccncc4o3)nc2)cn1 [Example 62, Furo[2,3-c]pyridine-2-carboxylic acid [5-(1-isopropyl-1H-pyrazole-4-sulfonyl)-pyridin-2-ylmethyl]-amide] |  |  | 11.6 nM | 
O=C(NCc1ccc(S(=O)(=O)c2cccc(C(F)(F)F)c2)cn1)c1cc2ccncc2o1 [Example 22, Furo[2,3-c]pyridine-2-carboxylic acid [5-(3-trifluoromethyl-benzenesulfonyl)-pyridin-2-ylmethyl]-amide] |  |  | 5.4 nM | 
O=C(NCc1ccc(S(=O)(=O)c2cc(F)cc(F)c2)cn1)c1cc2ccncc2o1 [Example 5, Furo[2,3-c]pyridine-2-carboxylic acid [5-(3,5-difluoro-benzenesulfonyl)-pyridin-2-ylmethyl]-amide] |  |  | 5.2 nM | 
CCCn1cc(S(=O)(=O)c2ccc(CNC(=O)c3cc4ccncc4o3)nc2)cn1 [Example 61, Furo[2,3-c]pyridine-2-carboxylic acid [5-(1-propyl-1H-pyrazole-4-sulfonyl)-pyridin-2-ylmethyl]-amide] |  | 5.3 nM |  | 
O=C(NCc1ccc(S(=O)(=O)c2cccc(OC(F)(F)F)c2)cn1)c1cc2cnccc2[nH]1 [Example 21, 1H-Pyrrolo[3,2-c]pyridine-2-carboxylic acid [5-(3-trifluoromethoxy-benzenesulfonyl)-pyridin-2-ylmethyl]-amide] |  |  | 10.2 nM | 
O=C(NCc1ccc(S(=O)(=O)c2cc(F)cc(N3CCOCC3)c2)cn1)c1cc2ccncc2o1 [Example 88, Furo[2,3-c]pyridine-2-carboxylic acid [5-(3-fluoro-5-morpholin-4-yl-benzenesulfonyl)-pyridin-2-ylmethyl]-amide] |  |  | 2 nM | 

— patent publication US9458172B2, “Pyridinyl and pyrimidinyl sulfoxide and sulfone derivatives” (priority 2012, dated 2016)
